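Protocol summary: plate cells (96-well), add compound at 5 concentrations, incubate 48 h, interpolate endpoints linearly. The concentration for 50% growth inhibition is given as GI50. Definition used: TGI = concentration required for complete inhibition of growth.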
Tests used:
Experiment in all cases: NCI-60 cell line screen, 48 h
EKVX NSCLC = tested on: EKVX NSCLC
HOP-62 NSCLC = tested on: HOP-62 NSCLC
IGROV1 ovarian = tested on: IGROV1 ovarian
M14 melanoma = tested on: M14 melanoma
NCI-H460 lung = tested on: NCI-H460 lung
SK-OV-3 ovarian = tested on: SK-OV-3 ovarian
SW-620 colon = tested on: SW-620 colon
UACC-257 melanoma = tested on: UACC-257 melanoma
UACC-62 melanoma = tested on: UACC-62 melanoma
UO-31 renal = tested on: UO-31 renal

Structure (SMILES)	TGI (EKVX NSCLC)	TGI (HOP-62 NSCLC)	TGI (IGROV1 ovarian)	TGI (M14 melanoma)	TGI (NCI-H460 lung)	TGI (SK-OV-3 ovarian)	TGI (SW-620 colon)	TGI (UACC-257 melanoma)	TGI (UACC-62 melanoma)	TGI (UO-31 renal)	GI50 (EKVX NSCLC)	GI50 (IGROV1 ovarian)	GI50 (M14 melanoma)	GI50 (NCI-H460 lung)	GI50 (SK-OV-3 ovarian)	GI50 (SW-620 colon)	GI50 (UACC-257 melanoma)	GI50 (UACC-62 melanoma)	GI50 (UO-31 renal)
COc1ccc(N=C/C=C/Nc2ccc(OC)cc2)cc1	30.6 µM	12.1 µM	25.1 µM	23.2 µM	28.1 µM	34.3 µM	5.48 µM	18.7 µM	27.5 µM	10.8 µM									
Cc1nc2ccccc2n1CCc1nc2ccccc2s1	> 100 µM	> 100 µM	> 100 µM	> 100 µM	> 100 µM	> 100 µM	> 100 µM	> 100 µM	> 100 µM										
NNC(=O)c1ccccc1NC(=O)/C(=C/c1ccccc1)NC(=O)c1ccccc1	> 100 µM	> 100 µM	> 100 µM	> 100 µM	> 100 µM	> 100 µM	> 100 µM	> 100 µM	> 100 µM	> 100 µM									
O=S1(=O)c2ccccc2N2CCCc3cc(Cl)cc1c32	> 100 µM	> 100 µM	> 100 µM	> 100 µM	> 100 µM	> 100 µM	> 100 µM	> 100 µM	> 100 µM	> 100 µM									
COc1ccc(-c2cc(-c3ccc(Nc4ccnc5cc(Cl)ccc45)cc3)nc(N)c2C#N)c2ccccc12	> 100 µM	> 100 µM	> 100 µM	> 100 µM	> 100 µM		> 100 µM	> 100 µM	> 100 µM	> 100 µM									
Cc1cc2ccccc2c[n+]1CC(=O)CC([O-])(C(F)(F)F)C(F)(F)F	> 100 µM	> 100 µM	> 100 µM	> 100 µM	> 100 µM	> 100 µM	> 100 µM	> 100 µM	> 100 µM	> 100 µM									
COC(=O)c1c(O)ccc2c1c1c(n2C)C(=O)c2ccccc2C1=O	> 100 µM	28 µM	21.8 µM	> 100 µM	> 100 µM	21.5 µM	> 100 µM	> 100 µM		> 100 µM									
CC1(C)N=C(N)N=C(N)N1c1cccc(CSc2ccccc2)c1	> 100 µM	> 100 µM	25 µM	11.2 µM	> 100 µM	> 100 µM	> 100 µM	> 100 µM	> 100 µM	> 100 µM									
O=C1CC(c2cccc(Cl)c2)n2cccc21 (centres undefined)		> 100 µM		> 100 µM		> 100 µM	> 100 µM	> 100 µM	> 100 µM	> 100 µM									
C=C[C@H]1CN2CC[C@H]1C[C@@H]2[C@@H](O)c1ccnc2ccccc12	> 100 µM	> 100 µM	75.9 µM	> 100 µM	> 100 µM	> 100 µM	> 100 µM	> 100 µM	> 100 µM	> 100 µM									
CO[P@]1(=O)O[C@@H](c2ccccc2)[C@H](O)[C@]1(O)c1ccccc1	> 100 µM		> 100 µM	> 100 µM	> 100 µM	> 100 µM	> 100 µM	> 100 µM	> 100 µM	> 100 µM									
CCCN(CCC)c1c([N+](=O)[O-])cc(S(N)(=O)=O)cc1[N+](=O)[O-]	37.5 µM	32 µM	19.6 µM	30.9 µM	29.4 µM	31.8 µM	36 µM	37.2 µM	32.8 µM	34.8 µM									
CCCCCCCCOCC1S(=O)(=O)OCCOS1(=O)=O	> 100 µM	> 100 µM	> 100 µM	> 100 µM	> 100 µM	> 100 µM	> 100 µM	> 100 µM	> 100 µM	> 100 µM									
O=c1[nH]cnc2c1ncn2[C@H]1CO[C@@H](CO)[C@@H]1O	> 100 µM	> 100 µM	> 100 µM		> 100 µM	> 100 µM	> 100 µM	> 100 µM	> 100 µM	> 100 µM									
COc1ccc2c(c1)CC[C@@H]1[C@@H]2CC[C@]2(C)/C(=N/OCCN3CCCCC3)CC[C@@H]12	21.5 µM	21 µM	5.6 µM	5.88 µM	5.68 µM	23.7 µM	20.3 µM	5.34 µM	3.68 µM	10.7 µM									
Brc1ccc2c(c1)C1=C(CO2)Cc2ccccc2O1	54.9 µM	30.3 µM	32.7 µM	35 µM		46.7 µM	66.4 µM	32.6 µM	32.2 µM	30.6 µM									
O=C(c1ccco1)N(C(=S)N1CCN(c2ccccc2)CC1)c1ccccc1		> 100 µM	> 100 µM	> 100 µM	> 100 µM	> 100 µM	> 100 µM	> 100 µM	> 100 µM	> 100 µM									
CCCCCC(C)C[C@H]1CO[C@H](c2ccc[nH]2)N[C@H]1C(=O)OC (some centres undefined)	> 100 µM	> 100 µM	> 100 µM	> 100 µM	> 100 µM	> 100 µM	> 100 µM	> 100 µM	> 100 µM										
CN(C)Cc1cc(C(=O)/C=C/c2ccc(/C=C/C(=O)c3cc(CN(C)C)c(O)c(CN(C)C)c3)cc2)cc(CN(C)C)c1O	> 100 µM	> 100 µM	> 100 µM	46.8 µM			54.7 µM	> 100 µM	94.3 µM	> 100 µM									
CN(C)CCCOC(=O)C(O)(Cc1ccccc1)C1CC1 (centres undefined)	> 100 µM	> 100 µM	> 100 µM	> 100 µM	> 100 µM	> 100 µM	> 100 µM	> 100 µM	> 100 µM										
COc1ccc(-c2cn3ccnc3c(-c3ccc4ncn(C5CCCCC5)c4c3)n2)cc1	> 100 µM		> 100 µM	> 100 µM	> 100 µM	7.64 µM	> 100 µM	> 100 µM	> 100 µM	> 100 µM	3.04 µM	921 nM	612 nM	622 nM	508 nM	734 nM	> 100 µM	434 nM	1350 nM

Source: PubChem BioAssay (NCI)
